Reference: patent US10131652B2, “Pyrimidinyloxy benzene derivatives as herbicides” (E. I. DU PONT DE NEMOURS AND COMPANY, priority 2014, dated 2018)
Like-named read-outs stand apart in the source and are kept apart here.

Legend:
Test in all cases: Test E pre-/postemergence plant response
Assay type in all cases: in vivo
[1] = test system: Italian ryegrass (Lolium multiflorum); details: scale 0 to 100, read-out: Plant response rating, Ryegrass, Italian; for pest or weed control at 16 g/ha: 16 g ai/ha; for pest or weed control at 31 g/ha: 31 g ai/ha; for pest or weed control at 62 g/ha: 62 g ai/ha; for pest or weed control at 125 g/ha: 125 g ai/ha
Summary of the method: (§1)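 Pre-emergence: seeds sown in silt loam soil and sprayed with test chemicals in a non-phytotoxic solvent/surfactant mix. Post-emergence: plants at 2–18 cm (1- to 4-leaf stage) in peat/vermiculite medium treated with the same formulation. Visual rating versus controls after 7–21 days, 0 (no effect) to 100 (complete control).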

[2] = test system: deadnettle (henbit deadnettle, Lamium amplexicaule); details: scale 0 to 100, read-out: Plant response rating, Deadnettle; for pest or weed control at 16 g/ha: 16 g ai/ha; for pest or weed control at 31 g/ha: 31 g ai/ha; for pest or weed control at 62 g/ha: 62 g ai/ha; for pest or weed control at 125 g/ha: 125 g ai/ha
Summary of the method: as §1

[3] = test system: field poppy (Papaver rhoeas); details: scale 0 to 100, read-out: Plant response rating, Field Poppy; for pest or weed control at 16 g/ha: 16 g ai/ha; for pest or weed control at 31 g/ha: 31 g ai/ha; for pest or weed control at 62 g/ha: 62 g ai/ha; for pest or weed control at 125 g/ha: 125 g ai/ha
Summary of the method: as §1

[4] = test system: field violet (Viola arvensis); details: scale 0 to 100, read-out: Plant response rating, Field Violet; for pest or weed control at 16 g/ha: 16 g ai/ha; for pest or weed control at 31 g/ha: 31 g ai/ha; for pest or weed control at 62 g/ha: 62 g ai/ha; for pest or weed control at 125 g/ha: 125 g ai/ha
Summary of the method: as §1

[5] = test system: green foxtail (Setaria viridis); details: scale 0 to 100, read-out: Plant response rating, Foxtail, Green; for pest or weed control at 16 g/ha: 16 g ai/ha; for pest or weed control at 31 g/ha: 31 g ai/ha; for pest or weed control at 62 g/ha: 62 g ai/ha; for pest or weed control at 125 g/ha: 125 g ai/ha
Summary of the method: as §1

[6] = test system: lambsquarters (Chenopodium album); details: scale 0 to 100, read-out: Plant response rating, Lambsquarters; for pest or weed control at 16 g/ha: 16 g ai/ha; for pest or weed control at 31 g/ha: 31 g ai/ha; for pest or weed control at 62 g/ha: 62 g ai/ha; for pest or weed control at 125 g/ha: 125 g ai/ha
Summary of the method: as §1

[7] = test system: pigweed (Amaranthus retroflexus); details: scale 0 to 100, read-out: Plant response rating, Pigweed; for pest or weed control at 16 g/ha: 16 g ai/ha; for pest or weed control at 31 g/ha: 31 g ai/ha; for pest or weed control at 62 g/ha: 62 g ai/ha; for pest or weed control at 125 g/ha: 125 g ai/ha
Summary of the method: as §1

[8] = test system: spring wheat (Triticum aestivum); details: scale 0 to 100, read-out: Plant response rating, Wheat, Spring; for plant injury at 16 g/ha: 16 g ai/ha; for plant injury at 62 g/ha: 62 g ai/ha; for plant injury at 125 g/ha: 125 g ai/ha
Summary of the method: as §1

[9] = test system: wild buckwheat (Polygonum convolvulus); details: Fallopia convolvulus, scale 0 to 100, read-out: Plant response rating, Buckwheat, Wild; for pest or weed control at 16 g/ha: 16 g ai/ha; for pest or weed control at 31 g/ha: 31 g ai/ha; for pest or weed control at 62 g/ha: 62 g ai/ha; for pest or weed control at 125 g/ha: 125 g ai/ha
Summary of the method: as §1

[10] = test system: wild radish (Raphanus raphanistrum); details: scale 0 to 100, read-out: Plant response rating, Radish, Wild; for pest or weed control at 16 g/ha: 16 g ai/ha; for pest or weed control at 31 g/ha: 31 g ai/ha; for pest or weed control at 62 g/ha: 62 g ai/ha; for pest or weed control at 125 g/ha: 125 g ai/ha
Summary of the method: as §1

[11] = test system: winter wheat (Triticum aestivum); details: scale 0 to 100, read-out: Plant response rating, Wheat, Winter; for plant injury at 16 g/ha: 16 g ai/ha; for plant injury at 62 g/ha: 62 g ai/ha; for plant injury at 125 g/ha: 125 g ai/ha
Summary of the method: as §1

[12] = post-emergence, 31 g ai/ha, Postemergence

Fc1cccc(Oc2ncc(Cl)cn2)c1-c1cc(C(F)(F)F)on1 [Compound 168, 5-chloro-2-[2-[5-(trifluoromethyl)-3-isoxazolyl]-3-fluorophenoxy]pyrimidine]
pest or weed control at 16 g/ha ([1]; post-emergence, Postemergence): 5%
pest or weed control at 31 g/ha ([1]; post-emergence, Postemergence): 10%
pest or weed control at 62 g/ha ([1]; post-emergence, Postemergence): 20%
pest or weed control at 125 g/ha ([1]; post-emergence, Postemergence): 25%
pest or weed control at 16 g/ha ([1]; pre-emergence, Preemergence): 0%
pest or weed control at 31 g/ha ([1]; pre-emergence, Preemergence): 0%
pest or weed control at 62 g/ha ([1]; pre-emergence, Preemergence): 30%
pest or weed control at 125 g/ha ([1]; pre-emergence, Preemergence): 75%
pest or weed control at 16 g/ha ([2]; post-emergence, Postemergence): 20%
pest or weed control at 31 g/ha ([2]; post-emergence, Postemergence): 55%
pest or weed control at 62 g/ha ([2]; post-emergence, Postemergence): 75%
pest or weed control at 125 g/ha ([2]; post-emergence, Postemergence): 80%
pest or weed control at 16 g/ha ([2]; pre-emergence, Preemergence): 10%
pest or weed control at 31 g/ha ([2]; pre-emergence, Preemergence): 50%
pest or weed control at 62 g/ha ([2]; pre-emergence, Preemergence): 80%
pest or weed control at 125 g/ha ([2]; pre-emergence, Preemergence): 100%
pest or weed control at 16 g/ha ([3]; post-emergence, Postemergence): 55%
pest or weed control at 31 g/ha ([3]; post-emergence, Postemergence): 85%
pest or weed control at 62 g/ha ([3]; post-emergence, Postemergence): 100%
pest or weed control at 125 g/ha ([3]; post-emergence, Postemergence): 100%
pest or weed control at 16 g/ha ([3]; pre-emergence, Preemergence): 80%
pest or weed control at 31 g/ha ([3]; pre-emergence, Preemergence): 100%
pest or weed control at 62 g/ha ([3]; pre-emergence, Preemergence): 100%
pest or weed control at 125 g/ha ([3]; pre-emergence, Preemergence): 100%
pest or weed control at 16 g/ha ([4]; post-emergence, Postemergence): 75%
pest or weed control at 31 g/ha ([4]; post-emergence, Postemergence): 75%
pest or weed control at 62 g/ha ([4]; post-emergence, Postemergence): 90%
pest or weed control at 125 g/ha ([4]; post-emergence, Postemergence): 95%
pest or weed control at 16 g/ha ([4]; pre-emergence, Preemergence): 85%
pest or weed control at 31 g/ha ([4]; pre-emergence, Preemergence): 100%
pest or weed control at 62 g/ha ([4]; pre-emergence, Preemergence): 100%
pest or weed control at 125 g/ha ([4]; pre-emergence, Preemergence): 100%
pest or weed control at 16 g/ha ([5]; post-emergence, Postemergence): 20%
pest or weed control at 31 g/ha ([5]; post-emergence, Postemergence): 60%
pest or weed control at 62 g/ha ([5]; post-emergence, Postemergence): 60%
pest or weed control at 125 g/ha ([5]; post-emergence, Postemergence): 75%
pest or weed control at 16 g/ha ([5]; pre-emergence, Preemergence): 10%
pest or weed control at 31 g/ha ([5]; pre-emergence, Preemergence): 100%
pest or weed control at 62 g/ha ([5]; pre-emergence, Preemergence): 100%
pest or weed control at 125 g/ha ([5]; pre-emergence, Preemergence): 100%
pest or weed control at 16 g/ha ([6]; post-emergence, Postemergence): 75%
pest or weed control at 31 g/ha ([6]; post-emergence, Postemergence): 85%
pest or weed control at 62 g/ha ([6]; post-emergence, Postemergence): 90%
pest or weed control at 125 g/ha ([6]; post-emergence, Postemergence): 95%
pest or weed control at 16 g/ha ([6]; pre-emergence, Preemergence): 45%
pest or weed control at 31 g/ha ([6]; pre-emergence, Preemergence): 100%
pest or weed control at 62 g/ha ([6]; pre-emergence, Preemergence): 100%
pest or weed control at 125 g/ha ([6]; pre-emergence, Preemergence): 100%
pest or weed control at 16 g/ha ([7]; post-emergence, Postemergence): 90%
pest or weed control at 31 g/ha ([7]; post-emergence, Postemergence): 80%
pest or weed control at 62 g/ha ([7]; post-emergence, Postemergence): 95%
pest or weed control at 125 g/ha ([7]; post-emergence, Postemergence): 95%
pest or weed control at 16 g/ha ([7]; pre-emergence, Preemergence): 55%
pest or weed control at 31 g/ha ([7]; pre-emergence, Preemergence): 100%
pest or weed control at 62 g/ha ([7]; pre-emergence, Preemergence): 100%
pest or weed control at 125 g/ha ([7]; pre-emergence, Preemergence): 100%
plant injury at 16 g/ha ([8]; post-emergence, Postemergence): 10%
plant injury at 31 g/ha [8, 12]: 20%
plant injury at 62 g/ha ([8]; post-emergence, Postemergence): 25%
plant injury at 125 g/ha ([8]; post-emergence, Postemergence): 40%
plant injury at 16 g/ha ([8]; pre-emergence, Preemergence): 15%
plant injury at 62 g/ha ([8]; pre-emergence, Preemergence): 20%
plant injury at 125 g/ha ([8]; pre-emergence, Preemergence): 30%
pest or weed control at 16 g/ha ([9]; post-emergence, Postemergence): 65%
pest or weed control at 31 g/ha ([9]; post-emergence, Postemergence): 95%
pest or weed control at 62 g/ha ([9]; post-emergence, Postemergence): 95%
pest or weed control at 125 g/ha ([9]; post-emergence, Postemergence): 100%
pest or weed control at 16 g/ha ([9]; pre-emergence, Preemergence): 0%
pest or weed control at 31 g/ha ([9]; pre-emergence, Preemergence): 65%
pest or weed control at 62 g/ha ([9]; pre-emergence, Preemergence): 100%
pest or weed control at 125 g/ha ([9]; pre-emergence, Preemergence): 100%
pest or weed control at 16 g/ha ([10]; post-emergence, Postemergence): 70%
pest or weed control at 31 g/ha ([10]; post-emergence, Postemergence): 75%
pest or weed control at 62 g/ha ([10]; post-emergence, Postemergence): 80%
pest or weed control at 125 g/ha ([10]; post-emergence, Postemergence): 85%
pest or weed control at 16 g/ha ([10]; pre-emergence, Preemergence): 0%
pest or weed control at 31 g/ha ([10]; pre-emergence, Preemergence): 45%
pest or weed control at 62 g/ha ([10]; pre-emergence, Preemergence): 100%
pest or weed control at 125 g/ha ([10]; pre-emergence, Preemergence): 100%
plant injury at 16 g/ha ([11]; post-emergence, Postemergence): 5%
plant injury at 31 g/ha [11, 12]: 10%
plant injury at 62 g/ha ([11]; post-emergence, Postemergence): 25%
plant injury at 125 g/ha ([11]; post-emergence, Postemergence): 35%
plant injury at 16 g/ha ([11]; pre-emergence, Preemergence): 5%
plant injury at 62 g/ha ([11]; pre-emergence, Preemergence): 10%
plant injury at 125 g/ha ([11]; pre-emergence, Preemergence): 30%
